Reference: patent publication US4228176A, “Thromboxane inhibition with burimamide” (Nelson Research & Development Company, priority 1979, dated 1980)
Where two headings read alike, the source gives them in different places.

How the values were obtained:
Thromboxane Synthetase [1] = conditions: cited from earlier work
Thromboxane Biosynthesis = experiment: Inhibition of thromboxane biosynthesis; assay type: biochemical; parameters: % Inhibition of Thromboxane Biosynthesis: unit of the concentration uncertain; conditions: for % INHIBITION (Inhibition of Thromboxane Biosynthesis): concentration of 100 mg/ml (Table 2)
Source text: A comparison of the inhibition of thromboxane biosynthesis between imidazole and Burimamide was made.
A number of structurally related compounds including other H2 blockers were compared for inhibition of thromboxane activity.

H2-receptor = conditions: cited from earlier work
[2] = test system: histamineinduced gastric acid secretion; conditions: cited from earlier work
Thromboxane Synthetase [3] = conditions: human platelets; cited from earlier work
[4] = concentration 0.5 (unit uncertain)
[5] = concentration 1 (unit uncertain)
[6] = concentration 2 (unit uncertain)
[7] = concentration 5 (unit uncertain)
[8] = concentration 10 (unit uncertain)
[9] = concentration 20 (unit uncertain)
[10] = concentration 50 (unit uncertain)

SMILES: Cn1ccnc1 [1-methyl imidazole]
- inhibition of thromboxane biosynthesis, in words (Thromboxane Synthetase [1]): potent inhibitor of thromboxane biosynthesis

SMILES: NCCc1ccccn1 [2-(2-pyridyl) Ethylamine]
- % INHIBITION (Inhibition of Thromboxane Biosynthesis) (Thromboxane Biosynthesis): 20%

SMILES: NCCc1nccs1 [2-(2-thiazolyl) Ethylamine]
- % INHIBITION (Inhibition of Thromboxane Biosynthesis) (Thromboxane Biosynthesis): 19%

SMILES: Cc1[nH]cnc1CCN [4-Methylhistamine]
- % INHIBITION (Inhibition of Thromboxane Biosynthesis) (Thromboxane Biosynthesis): 0%

SMILES: CNC(=S)NCCCCc1c[nH]cn1 [Burimamide, N-methyl-N'-[4-(imidazole-4-yl)butyl] thiourea]
- thromboxane biosynthesis inhibition, in words (Thromboxane Biosynthesis): potent, selective blocker of thromboxane biosynthesis
- % Inhibition of Thromboxane Biosynthesis (Thromboxane Biosynthesis; concentration 100 mg/ml (Table 1)): 98%
- % Inhibition of Thromboxane Biosynthesis (Thromboxane Biosynthesis; [4]): 15%
- % Inhibition of Thromboxane Biosynthesis (Thromboxane Biosynthesis; [5]): 21%
- % Inhibition of Thromboxane Biosynthesis (Thromboxane Biosynthesis; [6]): 36%
- % Inhibition of Thromboxane Biosynthesis (Thromboxane Biosynthesis; [7]): 47%
- % Inhibition of Thromboxane Biosynthesis (Thromboxane Biosynthesis; [8]): 58%
- % Inhibition of Thromboxane Biosynthesis (Thromboxane Biosynthesis; [9]): 73%
- % Inhibition of Thromboxane Biosynthesis (Thromboxane Biosynthesis; [10]): 86%
- % INHIBITION (Inhibition of Thromboxane Biosynthesis) (Thromboxane Biosynthesis): 100%
- pharmacologic activity at H2-receptor, in words (H2-receptor): H2 -receptor blocker
- histamine-induced gastric acid secretion, in words [2]: inhibit histamineinduced gastric acid secretion

SMILES: CNC(=NC#N)NCCSCc1[nH]cnc1C [Cimetidine]
- thromboxane biosynthesis inhibition, in words (Thromboxane Biosynthesis): only minor thromboxane inhibitory activity
- % INHIBITION (Inhibition of Thromboxane Biosynthesis) (Thromboxane Biosynthesis): 19%

SMILES: Clc1cccc(Cl)c1NC1=NCCN1 [Clonidine]
- % INHIBITION (Inhibition of Thromboxane Biosynthesis) (Thromboxane Biosynthesis): 0%

SMILES: CN(C)CCCSC(=N)N [Dimaprit]
- % INHIBITION (Inhibition of Thromboxane Biosynthesis) (Thromboxane Biosynthesis): 35%

SMILES: NCCc1c[nH]cn1 [Histamine]
- % INHIBITION (Inhibition of Thromboxane Biosynthesis) (Thromboxane Biosynthesis): 17%

SMILES: c1c[nH]cn1 [Imidazole]
- thromboxane biosynthesis inhibition, in words (Thromboxane Biosynthesis): only compound comparable in inhibition of thromboxane biosynthesis
- % Inhibition of Thromboxane Biosynthesis (Thromboxane Biosynthesis; [4]): 0%
- % Inhibition of Thromboxane Biosynthesis (Thromboxane Biosynthesis; [5]): 25%
- % Inhibition of Thromboxane Biosynthesis (Thromboxane Biosynthesis; [6]): 53%
- % Inhibition of Thromboxane Biosynthesis (Thromboxane Biosynthesis; [7]): 68%
- % Inhibition of Thromboxane Biosynthesis (Thromboxane Biosynthesis; [8]): 81%
- % Inhibition of Thromboxane Biosynthesis (Thromboxane Biosynthesis; [9]): 89%
- % Inhibition of Thromboxane Biosynthesis (Thromboxane Biosynthesis; [10]): 88%
- inhibition of thromboxane biosynthesis, in words (Thromboxane Synthetase [3]): selective inhibitor of thromboxane biosynthesis

SMILES: N[C@@H](Cc1c[nH]cn1)C(=O)O [L-Histidine]
- % INHIBITION (Inhibition of Thromboxane Biosynthesis) (Thromboxane Biosynthesis): 17%

SMILES: c1ccc([C@H]2CN3CCSC3=N2)cc1 [Levamisole]
- % INHIBITION (Inhibition of Thromboxane Biosynthesis) (Thromboxane Biosynthesis): 6%

SMILES: CNC(=S)NCCSCc1[nH]cnc1C [Metiamide]
- thromboxane biosynthesis inhibition, in words (Thromboxane Biosynthesis): only minor thromboxane inhibitory activity
- % INHIBITION (Inhibition of Thromboxane Biosynthesis) (Thromboxane Biosynthesis): 33%

SMILES: CC(=O)NCCc1c[nH]cn1 [N-acetyl Histamine]
- % INHIBITION (Inhibition of Thromboxane Biosynthesis) (Thromboxane Biosynthesis): 26%

SMILES: CC(=O)N[C@@H](Cc1c[nH]cn1)C(=O)O [N-acetyl Histidine]
- % INHIBITION (Inhibition of Thromboxane Biosynthesis) (Thromboxane Biosynthesis): 0%
